This note sets out measurements from patent US20250243171A1, “QUINAZOLINE COMPOUNDS FOR TREATMENT OF DISEASE” (Arthrosi Therapeutics, Inc., priority 2021, published 2025).

Common to all, as to test: EC50 assay: Ba/F3 stable cell proliferation (CCK-8, 72 h)
Format in all cases: cell-based

In experiment [1] the target is T1, Ba/F3 stable cells (Homo sapiens, UniProt P00533, DUP767-769, cells depend on it).
T1 construct: EC50 Ba/F3-EGFR V769-D770insASV; other: Ba/F3-EGFR V769-D770insASV cells, 72 h, CCK-8
The conditions noted are these: Ba/F3-EGFR V769-D770insASV cells. The method in brief:
(§1)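 Ba/F3 stable cells were seeded at 4,000 cells/90 μL/well in 96-well plates and held 2 h at 37° C. in 5% CO2, then given 10 μL of serially titrated compound (0.1% DMSO final). After 72 h at 37° C., CCK-8 reagent was added for 4 hours and absorbance read at 450 nm to derive EC50.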

For experiment [2], the target named is T2, Ba/F3 stable cells (Homo sapiens, UniProt P00533, DUP768-770, cells depend on it).
T2 construct: EC50 Ba/F3-EGFR D770-N771insSVD; other: Ba/F3-EGFR D770-N771insSVD cells, 72 h, CCK-8
Particulars: Ba/F3-EGFR D770-N771insSVD cells. The method in brief: as §1

Experiment [3] concerns the target T3, Ba/F3 stable cells (Homo sapiens, UniProt P00533, DUP771-773, cells depend on it).
T3 construct: EC50 Ba/F3-EGFR H773-V774insNPH; other: Ba/F3-EGFR H773-V774insNPH cells, 72 h, CCK-8
The conditions noted are these: Ba/F3-EGFR H773-V774insNPH cells. The procedure, abridged: as §1

The target of experiment [4] is T4, Ba/F3 stable cells (Homo sapiens, UniProt P00533, INS763FQEA, cells depend on it).
T4 construct: EC50 Ba/F3-EGFR A763-Y764insFQEA; other: Ba/F3-EGFR A763-Y764insFQEA cells, 72 h, CCK-8
Particulars: Ba/F3-EGFR A763-Y764insFQEA cells. The method in brief:
as §1

In experiment [5] the target is T5, Ba/F3 stable cells (Homo sapiens, UniProt P00533, T790M/L858R, cells depend on it).
T5 construct: EC50 Ba/F3-EGFR L858R-T790M; other: Ba/F3-EGFR L858R-T790M cells, 72 h, CCK-8
Particulars: Ba/F3-EGFR L858R-T790M cells. The procedure, abridged: as §1

Experiment [6] concerns the target T6, Ba/F3 stable cells (Homo sapiens, UniProt P04626, DUP772-775, cells depend on it).
T6 construct: EC50 Ba/F3-HER2 A775-G776insYVMA; other: Ba/F3-HER2 A775-G776insYVMA cells, 72 h, CCK-8
The conditions noted are these: Ba/F3-HER2 A775-G776insYVMA cells. The procedure, abridged: as §1

Molecules are shown by their SMILES. Some results are limits rather than exact numbers.

T5 sequence (P00533 whole entry T790M/L858R): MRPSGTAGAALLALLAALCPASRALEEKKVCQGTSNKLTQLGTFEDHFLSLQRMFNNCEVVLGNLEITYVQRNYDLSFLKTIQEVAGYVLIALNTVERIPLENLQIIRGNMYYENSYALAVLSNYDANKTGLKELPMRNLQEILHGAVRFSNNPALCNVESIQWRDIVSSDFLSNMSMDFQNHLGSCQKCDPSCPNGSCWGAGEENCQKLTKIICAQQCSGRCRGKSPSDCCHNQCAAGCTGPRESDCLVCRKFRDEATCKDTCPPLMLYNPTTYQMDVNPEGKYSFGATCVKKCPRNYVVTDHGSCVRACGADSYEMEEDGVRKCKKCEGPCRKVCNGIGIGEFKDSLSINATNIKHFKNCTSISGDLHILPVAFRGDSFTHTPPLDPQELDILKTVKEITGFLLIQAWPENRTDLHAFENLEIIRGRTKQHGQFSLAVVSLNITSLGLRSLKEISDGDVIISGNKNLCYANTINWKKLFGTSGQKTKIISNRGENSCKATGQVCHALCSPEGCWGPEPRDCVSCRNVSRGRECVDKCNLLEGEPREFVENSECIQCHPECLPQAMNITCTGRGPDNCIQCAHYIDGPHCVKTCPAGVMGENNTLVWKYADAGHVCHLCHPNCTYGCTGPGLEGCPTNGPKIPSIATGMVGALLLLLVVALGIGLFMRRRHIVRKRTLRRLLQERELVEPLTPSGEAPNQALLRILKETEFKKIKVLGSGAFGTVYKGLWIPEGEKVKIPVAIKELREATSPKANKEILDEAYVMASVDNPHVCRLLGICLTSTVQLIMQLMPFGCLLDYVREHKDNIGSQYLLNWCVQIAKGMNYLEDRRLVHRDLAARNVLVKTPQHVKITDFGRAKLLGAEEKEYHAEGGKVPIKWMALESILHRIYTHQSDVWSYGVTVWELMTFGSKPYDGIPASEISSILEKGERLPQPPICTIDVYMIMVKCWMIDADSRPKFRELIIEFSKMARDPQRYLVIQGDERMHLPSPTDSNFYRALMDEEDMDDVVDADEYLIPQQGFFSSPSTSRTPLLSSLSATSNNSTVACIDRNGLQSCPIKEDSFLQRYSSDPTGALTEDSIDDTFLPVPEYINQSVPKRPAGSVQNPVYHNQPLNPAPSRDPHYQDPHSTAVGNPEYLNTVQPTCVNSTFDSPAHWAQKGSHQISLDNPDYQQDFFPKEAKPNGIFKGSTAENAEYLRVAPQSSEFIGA
T6 sequence (P04626 with tags, fused parts or gaps DUP772-775): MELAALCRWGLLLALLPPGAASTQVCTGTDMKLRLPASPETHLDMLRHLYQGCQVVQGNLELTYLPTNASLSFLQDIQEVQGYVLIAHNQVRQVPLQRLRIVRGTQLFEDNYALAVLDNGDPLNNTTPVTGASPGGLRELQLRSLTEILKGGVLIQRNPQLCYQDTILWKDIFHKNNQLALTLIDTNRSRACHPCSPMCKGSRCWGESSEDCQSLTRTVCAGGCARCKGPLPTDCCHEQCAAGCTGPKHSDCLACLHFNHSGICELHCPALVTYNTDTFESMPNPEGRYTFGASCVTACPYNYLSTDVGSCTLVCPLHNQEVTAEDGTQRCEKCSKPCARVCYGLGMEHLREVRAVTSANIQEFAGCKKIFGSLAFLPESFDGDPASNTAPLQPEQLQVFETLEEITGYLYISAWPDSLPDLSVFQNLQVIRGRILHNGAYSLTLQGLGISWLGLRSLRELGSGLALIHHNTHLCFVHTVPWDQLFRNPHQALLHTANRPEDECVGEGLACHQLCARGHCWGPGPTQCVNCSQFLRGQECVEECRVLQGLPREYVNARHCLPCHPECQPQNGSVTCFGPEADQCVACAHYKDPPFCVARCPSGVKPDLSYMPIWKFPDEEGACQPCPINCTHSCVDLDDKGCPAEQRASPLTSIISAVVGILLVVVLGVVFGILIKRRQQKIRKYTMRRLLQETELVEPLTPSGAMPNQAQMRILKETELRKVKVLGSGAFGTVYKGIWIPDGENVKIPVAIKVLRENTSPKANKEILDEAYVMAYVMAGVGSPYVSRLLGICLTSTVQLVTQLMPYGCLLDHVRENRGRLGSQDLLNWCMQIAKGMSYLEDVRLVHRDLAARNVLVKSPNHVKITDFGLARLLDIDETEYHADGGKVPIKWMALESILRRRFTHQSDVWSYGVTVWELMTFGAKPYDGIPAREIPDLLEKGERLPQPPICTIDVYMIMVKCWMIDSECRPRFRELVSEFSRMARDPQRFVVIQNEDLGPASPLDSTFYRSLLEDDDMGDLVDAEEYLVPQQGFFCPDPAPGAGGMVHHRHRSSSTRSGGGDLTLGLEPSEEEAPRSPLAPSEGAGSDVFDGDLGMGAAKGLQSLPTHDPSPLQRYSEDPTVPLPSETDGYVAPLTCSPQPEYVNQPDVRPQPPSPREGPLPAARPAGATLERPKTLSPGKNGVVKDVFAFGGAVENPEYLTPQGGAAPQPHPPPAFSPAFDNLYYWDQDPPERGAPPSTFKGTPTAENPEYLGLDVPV
T1 sequence (P00533 with tags, fused parts or gaps DUP767-769): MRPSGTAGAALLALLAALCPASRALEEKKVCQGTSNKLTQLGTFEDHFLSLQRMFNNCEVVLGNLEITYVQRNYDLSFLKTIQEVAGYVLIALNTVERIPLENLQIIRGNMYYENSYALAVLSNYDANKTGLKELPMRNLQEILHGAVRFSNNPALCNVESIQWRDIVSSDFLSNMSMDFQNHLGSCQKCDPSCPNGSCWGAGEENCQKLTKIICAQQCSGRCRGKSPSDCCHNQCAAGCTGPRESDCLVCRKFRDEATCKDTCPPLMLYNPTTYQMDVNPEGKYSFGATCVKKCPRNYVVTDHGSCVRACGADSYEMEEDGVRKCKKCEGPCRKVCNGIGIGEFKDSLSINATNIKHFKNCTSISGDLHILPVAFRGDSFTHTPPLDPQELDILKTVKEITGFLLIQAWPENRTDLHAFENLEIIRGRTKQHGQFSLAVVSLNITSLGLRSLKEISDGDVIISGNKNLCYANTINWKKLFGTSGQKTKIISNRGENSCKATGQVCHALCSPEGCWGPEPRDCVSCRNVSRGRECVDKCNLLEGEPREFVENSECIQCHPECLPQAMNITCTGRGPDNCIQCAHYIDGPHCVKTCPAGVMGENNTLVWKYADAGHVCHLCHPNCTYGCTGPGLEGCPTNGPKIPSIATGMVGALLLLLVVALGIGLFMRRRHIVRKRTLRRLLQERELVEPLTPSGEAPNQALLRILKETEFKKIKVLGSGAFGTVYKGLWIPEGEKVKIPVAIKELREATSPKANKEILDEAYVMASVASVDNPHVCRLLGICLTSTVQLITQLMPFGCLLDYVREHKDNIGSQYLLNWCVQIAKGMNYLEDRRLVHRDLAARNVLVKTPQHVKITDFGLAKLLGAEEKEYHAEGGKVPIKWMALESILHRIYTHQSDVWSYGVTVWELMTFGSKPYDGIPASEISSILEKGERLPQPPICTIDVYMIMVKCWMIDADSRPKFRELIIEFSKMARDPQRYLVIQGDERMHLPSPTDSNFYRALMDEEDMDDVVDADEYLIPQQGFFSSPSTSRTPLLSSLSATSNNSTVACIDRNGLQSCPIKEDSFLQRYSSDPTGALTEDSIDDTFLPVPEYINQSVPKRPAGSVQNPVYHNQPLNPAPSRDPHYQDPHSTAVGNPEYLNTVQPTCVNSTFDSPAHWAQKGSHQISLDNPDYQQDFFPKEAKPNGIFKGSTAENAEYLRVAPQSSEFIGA
T4 sequence (P00533 with tags, fused parts or gaps INS763FQEA): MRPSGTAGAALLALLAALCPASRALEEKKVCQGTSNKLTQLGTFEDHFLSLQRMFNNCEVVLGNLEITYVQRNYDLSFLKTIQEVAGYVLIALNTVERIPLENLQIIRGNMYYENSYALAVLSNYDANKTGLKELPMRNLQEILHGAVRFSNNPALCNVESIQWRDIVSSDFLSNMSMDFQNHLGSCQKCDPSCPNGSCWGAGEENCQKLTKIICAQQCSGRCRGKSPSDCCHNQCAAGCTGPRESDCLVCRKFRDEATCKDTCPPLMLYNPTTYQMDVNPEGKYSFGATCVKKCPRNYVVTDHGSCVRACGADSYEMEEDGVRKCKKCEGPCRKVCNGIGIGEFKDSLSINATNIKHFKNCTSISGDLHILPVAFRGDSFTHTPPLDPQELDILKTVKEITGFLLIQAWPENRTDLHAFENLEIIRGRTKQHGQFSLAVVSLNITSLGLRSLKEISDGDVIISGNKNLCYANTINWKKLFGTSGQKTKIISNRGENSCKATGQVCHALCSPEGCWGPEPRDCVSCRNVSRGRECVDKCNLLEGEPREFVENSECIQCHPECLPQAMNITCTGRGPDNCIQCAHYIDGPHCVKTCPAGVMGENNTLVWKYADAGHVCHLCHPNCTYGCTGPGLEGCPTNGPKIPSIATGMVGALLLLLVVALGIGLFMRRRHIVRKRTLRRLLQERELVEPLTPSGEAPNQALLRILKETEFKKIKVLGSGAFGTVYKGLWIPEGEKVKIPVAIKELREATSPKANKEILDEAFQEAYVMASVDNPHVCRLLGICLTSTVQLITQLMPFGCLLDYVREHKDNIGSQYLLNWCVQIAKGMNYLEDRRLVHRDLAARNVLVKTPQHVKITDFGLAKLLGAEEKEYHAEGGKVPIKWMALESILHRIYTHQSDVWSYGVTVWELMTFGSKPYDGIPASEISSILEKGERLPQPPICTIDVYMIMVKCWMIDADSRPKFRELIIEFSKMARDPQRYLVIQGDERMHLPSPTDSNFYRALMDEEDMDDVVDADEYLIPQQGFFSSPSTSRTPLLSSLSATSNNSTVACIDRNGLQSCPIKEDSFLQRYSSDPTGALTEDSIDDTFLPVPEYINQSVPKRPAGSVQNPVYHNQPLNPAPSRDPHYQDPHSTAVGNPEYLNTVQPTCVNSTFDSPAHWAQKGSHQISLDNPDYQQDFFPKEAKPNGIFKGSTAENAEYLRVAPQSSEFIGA

Consider `C=CC(=O)N1CCC=C(c2ccc3ncnc(Nc4ccc(Cl)c(Cl)c4F)c3c2)C1` [Compound 187, 1-(5-(4-((3,4-dichloro-2-fluorophenyl)amino)quinazolin-6-yl)-3,6-dihydropyridin-1(2H)-yl)prop-2-en-1-one], for which the half-maximal effective concentration (EC50) at Ba/F3 stable cells [1] is not above 0.2 µM; at Ba/F3 stable cells [2] it was 0.2 to 1 µM; at Ba/F3 stable cells [3], 0.2 to 1 µM; at Ba/F3 stable cells [4], not above 0.2 µM; at Ba/F3 stable cells [5] it was 0.2 to 1 µM; on Ba/F3 stable cells [6], 0.2 to 1 µM.
As for `C=CS(=O)(=O)N1CCCC(c2ccc3ncnc(Nc4ccc(Cl)c(Cl)c4F)c3c2)C1` (stereo not drawn) [Compound 188, N-(3,4-dichloro-2-fluorophenyl)-6-(1-(vinylsulfonyl)piperidin-3-yl)quinazolin-4-amine], the EC50 at Ba/F3 stable cells [1] was not above 0.2 µM; at Ba/F3 stable cells [2], 0.2 to 1 µM; on Ba/F3 stable cells [3] it was not above 0.2 µM; at Ba/F3 stable cells [4] it was not above 0.2 µM; on Ba/F3 stable cells [5] it was not above 0.2 µM; at Ba/F3 stable cells [6] it was 0.2 to 1 µM.
On to `C=CS(=O)(=O)N1CCC=C(c2ccc3ncnc(Nc4ccc(Cl)c(Cl)c4F)c3c2)C1` [Compound 190, N-(3,4-dichloro-2-fluorophenyl)-6-(1-(vinylsulfonyl)-1,2,5,6-tetrahydropyridin-3-yl)quinazolin-4-amine], for which the EC50 at Ba/F3 stable cells [1] is not above 0.2 µM; at Ba/F3 stable cells [2] it was not above 0.2 µM; at Ba/F3 stable cells [3], not above 0.2 µM; at Ba/F3 stable cells [4], not above 0.2 µM; at Ba/F3 stable cells [5], not above 0.2 µM; on Ba/F3 stable cells [6], 0.2 to 1 µM.
For the molecule `C=CS(=O)(=O)NC1CC(Oc2cc3c(Nc4ccc(Cl)c(Cl)c4F)ncnc3cc2OC)C1` (stereo not drawn) [Compound 191, N-(3-((4-((3,4-dichloro-2-fluorophenyl)amino)-7-methoxyquinazolin-6-yl)oxy)cyclobutyl)ethenesulfonamide], the concentration for a half-maximal effect (EC50) at Ba/F3 stable cells [1] is not above 0.2 µM; at Ba/F3 stable cells [2], not above 0.2 µM; on Ba/F3 stable cells [3], not above 0.2 µM; at Ba/F3 stable cells [4], not above 0.2 µM; at Ba/F3 stable cells [5], not above 0.2 µM; at Ba/F3 stable cells [6], more than 1 µM.
Take `C=CS(=O)(=O)N1CCC(Oc2cc3c(Nc4ccc(Cl)c(Cl)c4F)ncnc3cc2OC)CC1` [Compound 192, N-(3,4-dichloro-2-fluorophenyl)-7-methoxy-6-((1-(vinylsulfonyl)piperidin-4-yl)oxy)quinazolin-4-amine]: the half-maximal effective concentration (EC50) on Ba/F3 stable cells [1] is not above 0.2 µM; on Ba/F3 stable cells [2], more than 1 µM; on Ba/F3 stable cells [3], not above 0.2 µM; on Ba/F3 stable cells [4], not above 0.2 µM; at Ba/F3 stable cells [5], not above 0.2 µM; at Ba/F3 stable cells [6], 0.2 to 1 µM.
Regarding `C=CS(=O)(=O)N1CCC(Oc2cc3c(C(=O)c4ccc(Cl)c(Cl)c4F)ncnc3cc2OC)CC1` [Compound 193, (3,4-dichloro-2-fluorophenyl)(7-methoxy-6-((1-(vinylsulfonyl)piperidin-4-yl)oxy)quinazolin-4-yl)methanone], the half-maximal effective concentration (EC50) is 0.2 to 1 µM on Ba/F3 stable cells [1]; more than 1 µM on Ba/F3 stable cells [2]; 0.2 to 1 µM on Ba/F3 stable cells [3]; not above 0.2 µM on Ba/F3 stable cells [4]; 0.2 to 1 µM on Ba/F3 stable cells [5]; more than 1 µM on Ba/F3 stable cells [6].
As for `COc1cc2ncnc(Nc3ccc(Cl)c(Cl)c3F)c2cc1OC1CCN(C#N)CC1` [Compound 194, 4-((4-((3,4-dichloro-2-fluorophenyl)amino)-7-methoxyquinazolin-6-yl)oxy)piperidine-1-carbonitrile], the EC50 at Ba/F3 stable cells [1] was not above 0.2 µM; on Ba/F3 stable cells [2], more than 1 µM; at Ba/F3 stable cells [3], 0.2 to 1 µM; on Ba/F3 stable cells [4], not above 0.2 µM; on Ba/F3 stable cells [5], more than 1 µM; at Ba/F3 stable cells [6], more than 1 µM.
For `COc1cc2ncnc(Nc3ccc(Cl)c(Cl)c3F)c2cc1C1CN(C#N)C1` [Compound 195, 3-(4-((3,4-dichloro-2-fluorophenyl)amino)-7-methoxy-quinazolin-6-yl)azetidine-1-carbonitrile], the EC50 on Ba/F3 stable cells [1] was more than 1 µM; at Ba/F3 stable cells [2] it was more than 1 µM; on Ba/F3 stable cells [3], more than 1 µM; at Ba/F3 stable cells [4], 0.2 to 1 µM; on Ba/F3 stable cells [5], 0.2 to 1 µM; at Ba/F3 stable cells [6], 0.2 to 1 µM.
For the molecule `COc1cc2ncnc(Nc3ccc(Cl)c(Cl)c3F)c2cc1OC1CC(N(C)C#N)C1` (stereo not drawn) [Compound 196, N-(3-((4-((3,4-dichloro-2-fluorophenyl)amino)-7-methoxy-quinazolin-6-yl)oxy)cyclobutyl)-N-methylcyanamide], the EC50 is not above 0.2 µM on Ba/F3 stable cells [1]; 0.2 to 1 µM at Ba/F3 stable cells [2]; 0.2 to 1 µM on Ba/F3 stable cells [3]; not above 0.2 µM on Ba/F3 stable cells [4]; more than 1 µM on Ba/F3 stable cells [5]; 0.2 to 1 µM at Ba/F3 stable cells [6].
`COc1cc2ncnc(Nc3ccc(Cl)c(Cl)c3F)c2cc1C1=CCCN(C#N)C1` [Compound 197, 5-(4-((3,4-dichloro-2-fluorophenyl)amino)-7-methoxy-quinazolin-6-yl)-3,6-dihydropyridine-1(2H)-carbonitrile]: the EC50 at Ba/F3 stable cells [1] is more than 1 µM; on Ba/F3 stable cells [2] it was more than 1 µM; at Ba/F3 stable cells [3], more than 1 µM; at Ba/F3 stable cells [4], 0.2 to 1 µM; on Ba/F3 stable cells [5], more than 1 µM; at Ba/F3 stable cells [6], more than 1 µM.
As to `COc1cc2ncnc(Nc3ccc(Cl)c(Cl)c3F)c2cc1OC1CCCN(C#N)C1` (stereo not drawn) [Compound 198, 3-((4-((3,4-dichloro-2-fluorophenyl)amino)-7-methoxy-quinazolin-6-yl)oxy)piperidine-1-carbonitrile], the half-maximal effective concentration (EC50) is 0.2 to 1 µM at Ba/F3 stable cells [1]; more than 1 µM at Ba/F3 stable cells [2]; 0.2 to 1 µM on Ba/F3 stable cells [3]; not above 0.2 µM at Ba/F3 stable cells [4]; more than 1 µM at Ba/F3 stable cells [5]; more than 1 µM on Ba/F3 stable cells [6].
With `C=CC(=O)N1CCC(Oc2c(OC)cc3ncnc4c3c2NC(=O)N4c2ccc(Cl)c(Cl)c2F)CC1` [Compound 199, 9-((1-acryloylpiperidin-4-yl)oxy)-3-(3,4-dichloro-2-fluorophenyl)-8-methoxy-1H-pyrimido[4,5,6-de]quinazolin-2(3H)-one], the EC50 at Ba/F3 stable cells [1] was 0.2 to 1 µM; on Ba/F3 stable cells [2], 0.2 to 1 µM; at Ba/F3 stable cells [3] it was 0.2 to 1 µM; at Ba/F3 stable cells [4], not above 0.2 µM; on Ba/F3 stable cells [5] it was 0.2 to 1 µM; on Ba/F3 stable cells [6], 0.2 to 1 µM.
Regarding `C=CC(=O)N1CCC(Oc2c(OC)cc3ncnc4c3c2N(C)C(=O)N4c2ccc(Cl)c(Cl)c2F)CC1` [Compound 200, 9-((1-acryloylpiperidin-4-yl)oxy)-3-(3,4-dichloro-2-fluorophenyl)-8-methoxy-1-methyl-1H-pyrimido[4,5,6-de]quinazolin-2(3H)-one], the concentration giving a half-maximal response (EC50) was 0.2 to 1 µM at Ba/F3 stable cells [1]; more than 1 µM at Ba/F3 stable cells [2]; 0.2 to 1 µM at Ba/F3 stable cells [3]; not above 0.2 µM on Ba/F3 stable cells [4]; more than 1 µM on Ba/F3 stable cells [5]; more than 1 µM at Ba/F3 stable cells [6].
On to `C=CC(=O)N1CCC(Oc2c(OC)cc3ncnc4c3c2NC(=O)N4c2ccc(Cl)c(Cl)c2F)C1` (stereo not drawn) [Compound 205, 9-((1-acryloylpyrrolidin-3-yl)oxy)-3-(3,4-dichloro-2-fluorophenyl)-8-methoxy-1H-pyrimido[4,5,6-de]quinazolin-2(3H)-one], for which the concentration for a half-maximal effect (EC50) on Ba/F3 stable cells [1] is more than 1 µM; at Ba/F3 stable cells [2] it was more than 1 µM; on Ba/F3 stable cells [3], more than 1 µM; at Ba/F3 stable cells [4], 0.2 to 1 µM; on Ba/F3 stable cells [5] it was more than 1 µM; on Ba/F3 stable cells [6], more than 1 µM.
